Test results published in article PMC11223215, “Metronidazole Interaction with Cu^2+ and Zn^2+: Speciation Study in Aqueous Solution and Biological Activity Evaluation” (ACS Omega, 2024).
In brackets after ≈: the same amount, converted by molar mass. Read-outs that look alike come from different tables or passages of the source. Values belong to the compound of their own block, whether it stands above or below them.

How the values were obtained:
[1] = test system: Trypanosoma cruzi Tulahuen CL2 amastigote stage; test: In vitro activity against T. cruzi; format: cell-based; details: T. cruzi Tulahuen CL2 amastigotes on MRC-5 cells, 7 days
Description: (§1) Briefly, S. aureus and E. coli were cultured in MHT (Mueller Hinton Broth) and maintained on TSA (Tryptone Soy Agar). T. cruzi, Tulahuen CL2 galactosidase strain (nifurtimox- sensitive), was maintained on MRC-5SV2 (human lung fibroblast) cells in MEM medium, supplemented with 200 mmol L^–1L-glutamine, 16.5 mmol L^–1 NaHCO3, and 5% inactivated fetal calf serum. The T. b. brucei Squib 427 strain (suramine-sensitive) and T. b. rhodesiense STIB-900 strain were maintained in Hirumi’s Modified Iscove’s medium-9 (HMI-9) medium, supplemented with 10% inactivated fetal calf serum. MRC-5SV2 cells were cultured in MEM + Earle’s salts-medium, supplemented with 2 mmol L^–1L-glutamine, 16.5 mmol L^–1 NaHCO3, and 5% inactivated fetal calf serum. All cultures were incubated at 37 °C under an atmosphere of 5% CO2.
The assay was performed at 37 °C under an atmosphere of 5% CO2 in sterile 96-well microtiter plates, each well containing 10 μL of the aqueous compound together with MRC-5 cell/parasite inoculum (190 μL; 4 × 10^3 cells/well + 4 × 10^4 parasites/well). The compounds were tested at 64, 16, 4, 1, and 0.25 μmol L^–1. Parasite growth was compared to that of untreated-infected controls and uninfected controls. After 7 days of incubation, parasite burdens were assessed after adding the substrate CPRG [chlorophenolred β-D-galactopyranoside; 50 μL/well of a solution of CPRG (15.2 mg); and Nonidet (250 μL) in PBS (100 mL)]. The sample was analyzed spectrophotometrically at 540 nm after 4 h. The results were expressed as % reduction in parasite burden compared to control wells, and an IC50 was calculated.

[2] = test system: Trypanosoma brucei brucei Squib-427 strain, suramin-sensitive, trypomastigote stage; test: In vitro activity against T. b. brucei; format: cell-based; details: T. b. brucei Squib-427 trypomastigotes, 3 days, resazurin
Description: as §1
(§2) The assay was performed at 37 °C under an atmosphere of 5% CO2 in sterile 96-well microtiter plates, each well containing the aqueous compound (10 μL) dilution together with the parasite suspension [190 μL; 1.5 × 10^3 parasites/well (T. b. brucei) or 4 × 10^3 parasites/well (T. rhodesiense)]. The compounds were tested at 64, 16, 4, 1, and 0.25 μmol L^–1. Parasite growth was compared to untreated-infected controls and uninfected controls. After 3 days of incubation, parasite growth was assessed fluorimetrically after addition of resazurin [50 μL; 50 μg/mL in phosphate buffer] to each well. After 6 h (T. b. rhodesiense) or 24 h (T. b. brucei) at 37 °C, fluorescence was measured (λex 550 nm, λem 590 nm). The results were expressed as % reduction in parasite growth/viability compared to control wells, and an IC50 was calculated.

Candida albicans = test: In vitro activity against C. albicans; format: cell-based
Description: (§3) The assays were performed at 37 °C in sterile 96-well microtiter plates, each well containing 10 μL of aqueous compound together with a bacterial/fungal/MRC-5 inoculum (190 μL; 5 × 10^3 CFU/mL). The compounds were tested at 64, 16, 4, 1, and 0.25 μ-mol L^–1. Bacterial/fungal/MRC-5 growth was compared to untreated-control wells (100% growth) and medium-control wells (0% cell growth). After 3 days of incubation, 50 μL of resazurin was added in each well. After 30 min at 37 °C, the fluorescence was measured at λex = 550 nm and λem = 590 nm. The results are expressed as % reduction in cell growth/viability compared to control wells, and IC50 values were determined.

[3] = test system: Leishmania infantum (intracellular amastigotes); test: In vitro activity against L. infantum; format: cell-based
[4] = test system: Trypanosoma brucei rhodesiense STIB900 strain, drug susceptible, trypomastigote stage; test: In vitro activity against T. b. rhodesiense; format: cell-based; details: T. b. rhodesiense STIB900 trypomastigotes, 3 days, resazurin
Description: as §1, §2

[5] = test system: MRC-5 human fetal lung fibroblasts; test: Cytotoxicity on MRC-5 cells; format: cell-based; details: MRC-5 human fetal lung fibroblasts cytotoxicity
Description: as §3, with “Briefly, S. aureus and E. coli were cultured in MHT (Mueller Hinton Broth) and maintained on TSA (Tryptone Soy Agar). […] The T. b. brucei Squib 427 strain (suramine-sensitive) and T. b. rhodesiense STIB-900 strain were maintained in Hirumi’s Modified Iscove’s medium-9 (HMI-9) medium, supplemented with 10% inactivated fetal calf serum. […] All cultures were incubated at 37 °C under an atmosphere of 5% CO2. The assays” for “The assays”

Aspergillus fumigatus = test: In vitro activity against A. fumigatus; format: cell-based
Description: as §3

Escherichia coli = test: In vitro activity against E. coli; format: cell-based; details: resazurin
Description: as §1, §3

[6] = test system: Primary peritoneal mouse macrophages (PMM); test: Cytotoxicity on primary peritoneal mouse macrophages; format: cell-based
Staphylococcus aureus = test: In vitro activity against S. aureus; format: cell-based; details: resazurin
Description: as §1, §3

[7] = Sequestering ability of MNZ (pL0.5) toward Zn2+; format: physicochemical; details: toward Zn^2+, t = 37 °C, I = 0.15 mol L^–1, pH = 7.4
Source text: (§4) The tendency of a ligand to complex a free metal cation in solution to form metal–ligand species is expressed as the sequestering ability. To describe the sequestering ability of a ligand toward a certain metal cation, however, the mere knowledge of formation constants is not enough as it is necessary to consider all the possible interactions that both ligand and metal cation may have with all the species present in solution. In order to define it quantitatively, the empirical parameter pL0.5 was introduced, which represents the cologarithm of the ligand concentration necessary to sequester 50% of the metal cation in traces.[34],[35] The calculation is based on the following Boltzmann-type sigmoidal equation: [drawing 33] 3 where χ is the sum of molar fractions of the different complex species and pL is the cologarithm of the total ligand concentration.
(§5) A comparison between the sequestering ability of MNZ toward Zn^2, Cu^2+, and Ca^2+ (one of the main metal cations present in human body and previously studied in our recent work[30]) was evaluated under physiological conditions.

[8] = Sequestering ability of MNZ (pL0.5) toward Cu2+; format: physicochemical; details: toward Cu^2+, t = 37 °C, I = 0.15 mol L^–1, pH = 7.4
Source text: as §4, §5

[9] = Cytotoxicity on MRC-5 cells; format: cell-based; details: MRC-5 SV2 human fetal lung fibroblasts; MRC-5 human fetal lung fibroblasts cytotoxicity
Description: as §3, with “Briefly, S. aureus and E. coli were cultured in MHT (Mueller Hinton Broth) and maintained on TSA (Tryptone Soy Agar). […] The T. b. brucei Squib 427 strain (suramine-sensitive) and T. b. rhodesiense STIB-900 strain were maintained in Hirumi’s Modified Iscove’s medium-9 (HMI-9) medium, supplemented with 10% inactivated fetal calf serum. […] All cultures were incubated at 37 °C under an atmosphere of 5% CO2. The assays” for “The assays”

[10] = Sequestering ability of MNZ (pL0.5) toward Ca2+; format: physicochemical; details: toward Ca^2+, t = 37 °C, I = 0.15 mol L^–1, pH = 7.4
Source text: as §4, §5

[11] = Cytotoxicity on primary peritoneal mouse macrophages; format: cell-based; details: primary peritoneal mouse macrophages (PMM)
[12] = Trypanosoma cruzi, MRC5, 168 h, read-out: IC50
[13] = Escherichia coli, read-out: IC50
[14] = Staphylococcus aureus, read-out: IC50
[15] = Candida albicans, read-out: IC50
[16] = Trypanosoma brucei, 72 h, read-out: IC50
[17] = Leishmania infantum, read-out: IC50

SMILES: O=C(Cn1ccnc1[N+](=O)[O-])NCc1ccccc1 [Benznidazol]
IC50 [1, 12]: 0.43 µg/mL (≈ 1.65 µM)

SMILES: [Cl][Cu][Cl] [Cu^2+]
IC50 [2]: 0.75 µg/mL
IC50 (Candida albicans): >2.42 µg/mL
IC50 [3]: >2.42 µg/mL
IC50 [4]: 0.94 µg/mL
CC50 [5]: >2.42 µg/mL
IC50 (Aspergillus fumigatus): >2.42 µg/mL
IC50 (Escherichia coli): >2.42 µg/mL
CC50 [6]: >2.42 µg/mL
IC50 (Staphylococcus aureus): >2.42 µg/mL
IC50 [1]: >2.42 µg/mL

SMILES: Cc1ncc([N+](=O)[O-])n1CCO [MNZ(L), 2-methyl-5-nitro-1H-imidazole-1-ethanol]
pL0.5 [7]: 3.1
IC50 [2, 16]: > 5.64 µg/mL
IC50 (Candida albicans; [15]): > 5.64 µg/mL
pL0.5 [8]: 4.3
IC50 [3, 17]: > 5.64 µg/mL
IC50 [4, 16]: > 5.64 µg/mL
CC50 at 3 days [9]: > 5.64 µg/mL
IC50 (Aspergillus fumigatus; Aspergillus fumigatus, read-out: IC50): > 5.64 µg/mL
IC50 (Escherichia coli; [13]): > 5.64 µg/mL
pL0.5 [10]: 1.9
CC50 [11]: > 5.64 µg/mL
IC50 (Staphylococcus aureus; [14]): > 5.64 µg/mL
IC50 [1, 12]: > 5.64 µg/mL

SMILES: CCCCCCCCCCCCCCCCOP(=O)([O-])OCC[N+](C)(C)C [Miltefosine]
IC50 [3, 17]: 2.05 µg/mL (≈ 5.03 µM)

SMILES: [Cl-].[Cl-].[Zn+2] [Zn^2+]
IC50 [2]: >1.79 µg/mL
IC50 (Candida albicans): >1.79 µg/mL
IC50 [3]: >1.79 µg/mL
IC50 [4]: >1.79 µg/mL
CC50 [5]: >1.79 µg/mL
IC50 (Aspergillus fumigatus): >1.79 µg/mL
IC50 (Escherichia coli): >1.79 µg/mL
CC50 [6]: >1.79 µg/mL
IC50 (Staphylococcus aureus): >1.79 µg/mL
IC50 [1]: >1.79 µg/mL

Second part, the compound after the results:

IC50 (Escherichia coli; [13]): 0.64 µg/mL (≈ 1.44 µM)
IC50 (Staphylococcus aureus; [14]): 0.08 µg/mL (≈ 0.18 µM)
SMILES: C[C@H]1c2cccc(O)c2C(=O)C2=C(O)[C@]3(O)C(=O)C(C(N)=O)=C(O)[C@@H](N(C)C)[C@@H]3[C@@H](O)[C@@H]21 [Doxycycline]

IC50 (Candida albicans; [15]): 0.51 µg/mL (≈ 3.95 µM)
SMILES: Nc1[nH]c(=O)ncc1F [Flucytosine]

IC50 [2, 16]: 0.03 µg/mL (≈ 0.0231 µM)
IC50 [4, 16]: 0.07 µg/mL (≈ 0.054 µM)
SMILES: Cc1ccc(C(=O)Nc2ccc(S(=O)(=O)O)c3cc(S(=O)(=O)O)cc(S(=O)(=O)O)c23)cc1NC(=O)c1cccc(NC(=O)Nc2cccc(C(=O)Nc3cc(C(=O)Nc4ccc(S(=O)(=O)O)c5cc(S(=O)(=O)O)cc(S(=O)(=O)O)c45)ccc3C)c2)c1 [Suramine]
